According to patent publication US10137185B2, “PAP peptide analogues” (THE NOTTINGHAM TRENT UNIVERSITY, priority 2014, dated 2018):

Assays:
[1] = tested on: PBMCs isolated from patients with prostate cancer; experiment: IFNγ ELISA of supernatants of PBMCs, Norway clinical trial; type: cell-based, human
Protocol: FIG. 8. Fold change in the IFNγ response generated by PBMCs isolated from patients with prostate cancer from the Norway Clinical Trial after re-stimulation with of PAP-115-123 epitope peptide (10 μg), as assessed using an ELISA. Patients that were reported to have responded to the treatment (p10, p12, p15, p19, p101, p102, p107, p108) are indicated by red bars. […] The cryopreserved PBMCs were washed and rested overnight, at which time 4×10^4 cells were added to each well of a 96 well plate. PAP-115-123 epitope peptide (10 μg) was added to each well and the plates cultured for 48 hours. Supernatants were harvested and analysed for IFNγ secretion.
Cryopreserved PBMCs were thawed, washed and rested overnight, at which time 4×10^4 cells were added to each well of an ELISPOT plate. PAP-115-123 epitope peptide (10 μg) was to each well and cells were cultured for 48 hours. The plates were developed according to the manufacturer's protocol. PBMCs cultured with HIV-derived peptide or no peptide were used as controls. A 2-4 fold higher PAP-115-123 specific IFNγ response was observed using PBMCs from 8 of the responder patients and 2-12 fold decreases in the IFNγ response was observed using PBMCs from 4 of the non-responder patients (FIG. 7). IFNγ secretion in these samples was confirmed by analysing harvested supernatants using an R&D Systems ELISA (FIG. 8). […]

[2] = tested on: PBMCs from HLA-A2 positive patients with prostate cancer and individuals with benign disease; experiment: IFNγ ELISPOT of PBMCs from prostate cancer patients and individuals with benign disease after peptide re-stimulation; type: cell-based, human
Protocol: FIG. 3. IFNγ response of peripheral blood mononuclear cells (PBMCs) isolated from patients with prostate cancer and individuals with benign disease after re-stimulation with PAP-115-123 epitope using an ELISPOT assay. Cryopreserved PBMCs from ten HLA-A2 positive prostate cancer patients and ten benign candidates were compared. The PBMCs were cultured in vitro with 5 μg of PAP-114-128 epitope for 7 days. The cells were then washed and rested overnight and 4×10^4 cells were added to each well of an ELISPOT plate. PAP-115-123 epitope peptide (1 μg) was added per well and cells cultured for 48 hours. The plates were then washed according to the manufacturer's protocol. PBMCs with no added peptide were used as control. Comparisons of means (±SEM) between groups (cells pulsed with PAP-115-123 or no peptide) are made using an unpaired t test.
FIG. 12. IFNγ responses generated by PBMCs isolated from 10 patients with prostate cancer and 10 individuals with benign disease after re-stimulation with the PAP-115-123 analogue epitope peptide, as determined using an ELISPOT assay. PBMCs were cultured in vitro with 5 μg of PAP-114-128 analogue epitope for 7 days. The cells were then washed and rested overnight, at which time and 4×10^4 cells were added to each well of an ELISPOT plate. PAP-115-123 analogue epitope peptide (1 μg) was added to each well and the cells were cultured for 48 hours. The plates were then washed according to the manufacturer's protocol. PBMCs cultured with no added peptide were used as the control. Comparisons of means (±SEM) between groups (PBMCs pulsed with PAP-115-123 analogue or no peptide) are made using an unpaired t test.
To determine the presence of circulating T cells specific for PAP-115-123 in humans, PBMCs from HLA-A2 positive patients with prostate cancer and individuals with benign disease were used. Cryopreserved PBMCs were thawed, washed and restimulated for 7 days with […] epitope peptide. The cells were then washed and rested overnight, at which time 4×10^4 cells were added to each well of an ELISPOT plate. PAP-115-123 epitope peptide (1 μg) was added to each well and the cells cultured for 48 hours. The plates were developed according to the manufacturer's instructions. PBMCs cultured with no peptide were used as controls. […] The number of IFNγ spots generated by PBMCs from one of the patients was as high as 220 (vs 60 spots for the control). The number of spots generated by PBMCs for the other 6 patients with prostate cancer ranged between 50 and 100 (vs 10-20 in controls). Although some of the PBMCs from individuals with benign disease generated 50-100 spots, the number of spots in the control wells was also high.
To determine the presence of circulating T cells specific for PAP-115-123 analogue peptide in humans, PBMCs from HLA-A2 positive patients with prostate cancer and individuals with benign disease were used. Cryopreserved PBMCs were thawed, washed and restimulated for 7 days with […] analogue epitope. The cells were then washed and rested overnight, at which time 4×10^4 cells were added to each well of an ELISPOT plate. 1 μg of PAP-115-123 analogue epitope was added to each well and cells were cultured for 48 hours. The plates were developed as per the manufacturer's instructions. PBMCs cultured with no peptide were used as control. […] The number of IFNγ spots in one of the patients was as high as 180 spots compared to control (54 spots). Similar response was also obtained when PBMCs were co-cultured with PAP-115-123 epitope (FIG. 3). The number of spots generated by PBMCs from the 6 patients with prostate cancer patients ranged between 50 and 100 (vs 10-20 in control wells). Although some of the samples from individuals with benign disease generated 50-100 spots, the number of spots in the control wells was also high.

## SAMTNLAAL [PAP-115-123]
[1]; 10 μg peptide
  fold lower IFNγ levels post vs pre vaccination, non-responders: 2-2.5 fold
[1]; all responders except p19, 10 μg peptide
  fold higher IFNγ levels post vs pre vaccination, responders: 1-1.5 fold
[2]; 1 μg peptide, 4×10^4 cells per well, 10-20 in controls
  number of spots, other 6 patients with prostate cancer: 50-100 spots
[2]; 1 μg peptide, spots in control wells also high
  number of spots, some PBMCs from individuals with benign disease: 50-100 spots
[2]; 10 benign individuals, 1 μg peptide
  peptide-specific IFNγ response in samples from individuals with benign disease: no PAP-115-123 specific IFNγ response and none
[2]; of 10 samples, 7 days re-stimulation with the 15-mer, then 1 μg peptide, 48 hours, vs no peptide
  PBMC samples from patients with prostate cancer with peptide-specific IFNγ response: 7
[2]; one prostate cancer patient, 1 μg peptide, 4×10^4 cells per well, 48 hours
  number of IFNγ spots, highest patient: 220 spots
